The numbers were not newly measured in patent US20260199284A1, “SPECIFIC VASH COMPOUNDS (SVC) INHIBITORS FOR HEART DISEASES” (MT ACT, priority 2023, published 2026), which cites them from elsewhere.

The data set concerns VASH. The following applies: cited from earlier work.

As for `CCOC(=O)[C@H]1O[C@@H]1C(=O)N[C@@H](Cc1ccc(O)cc1)C(=O)O` [Epo-Y, epoxide-Y], the “more potent VASH inhibitor than PTL” value is on record as over 10 fold.
